Laboratory results: patent EP0195316A1, “Quinolonecarboxylic acid derivatives” (KYORIN PHARMACEUTICAL CO., LTD., priority 1985, dated 1986)
≈ marks a conversion by molar mass, not a printed value. Like-named read-outs stand apart in the source and are kept apart here.

Assays:
F. varium KYA 8501 = experiment: MIC, in vitro antibacterial activity (standard strains); format: cell-based; details: Fusobacterium varium, KYA8501
S. pneumoniae IID 552 = experiment: as above; format: cell-based; details: Streptococcus pneumoniae, IID552
Shigella sonnei IID 969 = experiment: as above; format: cell-based; details: IID969; Shigella sonnei IID 969, 10^6 cells/ml, Gram -
Protocol: (§1) Minimal inhibitory concentrations (MICs) were determined in accordance with the method recommended by Japan Society of Chemotherapy.

[1] = test system: B. thetaiotaomicron (0661); experiment: as above; format: cell-based; details: Bacteroides thetaiotaomicron
[2] = test system: Alcaligenes faecalis 0104002; experiment: as above; format: cell-based; details: Alcaligenes faecalis, 0104002
[3] = test system: Streptococcus pyogenes (S-8); experiment: as above; format: cell-based; details: Streptococcus pyogenes
C. perfringens KYA 13123 = experiment: microbe, parasite or virus in culture; format: cell-based; details: Clostridium perfringens, KYA13123
K. pneumoniae 1-220S = experiment: MIC, in vitro antibacterial activity (standard strains); format: cell-based; details: Klebsiella pneumoniae, 1220S
[4] = test system: Escherichia coli NIHJ JC-2; experiment: as above; format: cell-based; details: NIHJJC2
[5] = test system: Klebsiella pneumoniae KY(GN)6445; experiment: as above; format: cell-based; details: Klebsiella pneumoniae
Bacteroides fragilis 2 = experiment: Experimental local infection with anaerobic bacteria in granuloma pouches in rats; format: in vivo; details: pouch exudate, Mean ± S.D. (n=3)
Protocol: Under ether anesthesia, male Wistar rats (7 weeks old) were injected subcutaneously on the back with 20 ml of germ-free air (sterilized by membrane filtration, 0.45 µm pore size) by means of a syringe. Continuously, an inflammatory reaction was induced by injecting one ml of sterile croton oil solution (1 % in olive oil) into the formed air pouch. After 2 days, the air was removed. On the eighth day, 0.5 ml of Bacteroides fragilis 2 culture (10^6 CFU/ml) were injected into bore granuloma pouches. Each compound was administered orally or subcutaneously at 2 hours after infection. […] During experiment, intake of food and water was free. It was known that the activity of the existing quinolonecarboxylic acid compounds against obligate anaerobic bacteria was very weak. […] This property is also one of excellent characters of the present comound.

P. aeruginosa = experiment: MIC, in vitro antibacterial activity (clinical isolates); format: cell-based; details: Pseudomonas aeruginosa
S. marcescens = experiment: as above; format: cell-based; details: Serratia marcescens, No. of strains 20
N. gonorrhoeae = experiment: as above; format: cell-based; details: Neisseria gonorrhoeae, No. of strains 16
B. catarrhalis = experiment: as above; format: cell-based; details: Moraxella catarrhalis
P. vulgaris = experiment: as above; format: cell-based; details: Proteus vulgaris, No. of strains 6
Acinetobacter sp. = experiment: as above; format: cell-based
P. maltophilia = experiment: as above; format: cell-based; details: Stenotrophomonas maltophilia, No. of strains 9
Alcaligenes sp. = experiment: as above; format: cell-based; details: No. of strains 9
Campylobacter jejuni = experiment: as above; format: cell-based; details: No. of strains 20
M. morganii = experiment: as above; format: cell-based; details: Morganella morganii, No. of strains 8
P. mirabilis = experiment: as above; format: cell-based; details: Proteus mirabilis, No. of strains 10
C. freundii = experiment: as above; format: cell-based; details: Citrobacter freundii, No. of strains 9
E. faecalis = experiment: as above; format: cell-based; details: Enterococcus faecalis, No. of strains 5
Bacteroides sp. = experiment: as above; format: cell-based; details: No. of strains 17
S. aureus = experiment: as above; format: cell-based; details: Staphylococcus aureus, No. of strains 21
Protocol: as §1

P. pneumoniae = experiment: as above; format: cell-based; details: No. of strains 25
Protocol: as §1

E. coli = experiment: as above; format: cell-based; details: Escherichia coli, No. of strains 25
Protocol: as §1

MR-S. aureus = experiment: as above; format: cell-based; details: Staphylococcus aureus, No. of strains 46
H. influenzae = experiment: as above; format: cell-based; details: Haemophilus influenzae, No. of strains 26
S. epidermidis = experiment: as above; format: cell-based; details: Staphylococcus epidermidis, No. of strains 10
P. aeruginosa IID 1210 = experiment: In vivo antibacterial activity against systemic infections in mice; details: Pseudomonas aeruginosa
Protocol: (§2) The infections were produced by intraperitoneal injection of suspension of the bacterial cells. The compounds were administered orally at an hour after the injection. Five male ICR mice were used for each dosage. […] The efficacy of the present compound are shown in Table 4 in comparison with those of the reference compounds.

E. coli ML 4707 = experiment: as above; details: Escherichia coli
Protocol: as §2

S. aureus Smith = experiment: as above; details: Staphylococcus aureus
Protocol: as §2

S. pneumoniae S-4288 = experiment: as above; details: Streptococcus pneumoniae
Protocol: as §2

N. meningitidis = experiment: MIC, in vitro antibacterial activity (clinical isolates); format: cell-based; details: Neisseria meningitidis, No. of strains 3
S. pneumoniae = experiment: as above; format: cell-based; details: Streptococcus pneumoniae
S. pyogenes = experiment: as above; format: cell-based; details: Streptococcus pyogenes
E. cloacae = experiment: as above; format: cell-based; details: Enterobacter cloacae
Pst. microns UPI 5464-1 = experiment: MIC, in vitro antibacterial activity (standard strains); format: cell-based; details: Pst. microns UPI 5464-1, 10^6 cells/ml, Gram +
[6] = test system: Proteus vulgaris IFO 3167; experiment: as above; format: cell-based; details: Proteus vulgaris, IFO3167
[7] = test system: nalidixic acid-resistant Salmonella typhimurium TA98 strain (nal^r); experiment: Mutagenicity, reverse mutation assay; details: 0.5 µg/plate, S9-mix +, positive control
Excerpt: As for antibacterial agents, assessment of mutagenicity using bacteria is somewhat difficult because of their activity on the test bacteria.

[8] = IID1210, P. aeruginosa IID 1210 systemic infection (i.p.), male ICR mice, oral administration an hour after infection, read-out: ED50
[9] = ML4707, E. coli ML 4707 systemic infection (i.p.), male ICR mice, oral administration an hour after infection, read-out: ED50
[10] = S4288, S. pneumoniae S-4288 systemic infection (i.p.), male ICR mice, oral administration an hour after infection, read-out: ED50

O=C(O)c1cn(C2CC2)c2c(F)c(N3CCNCC3)c(F)cc2c1=O [Ref.1, 1-Cyclopropyl-6,8-difluoro-1,4-dihydro-4-oxo-7-(1-piperazinyl)-3-quinoline-carboxylic acid]
MIC (F. varium KYA 8501): 3.13 mg/L (≈ 8.96 µM) | MIC (S. pneumoniae IID 552): 0.78 mg/L (≈ 2.23 µM) | MIC (Shigella sonnei IID 969): ≤ 0.006 mg/L | MIC [1]: 3.13 mg/L (≈ 8.96 µM) | MIC [2]: 0.025 mg/L (≈ 0.0716 µM) | MIC [3]: 0.39 mg/L (≈ 1.12 µM) | MIC (C. perfringens KYA 13123): 0.39 mg/L (≈ 1.12 µM) | MIC (K. pneumoniae 1-220S): 0.05 mg/L (≈ 0.143 µM) | MIC ([4]; Escherichia coli): ≤ 0.006 mg/L | MIC [5]: 0.0125 mg/L (≈ 0.0358 µM)

CO[C@@]1(NC(=O)Cc2cccs2)C(=O)N2C(C(=O)O)=C(COC(N)=O)CS[C@@H]21 [CFX, cefoxitin]
Viable cells count (log) / ml (Bacteroides fragilis 2; 50 mg/kg, s.c., 6 hr): 3.9 ± 0.25 (log) / ml | Viable cells count (log) / ml (Bacteroides fragilis 2; 50 mg/kg, s.c., 24 hr): 6.3 ± 0.31 (log) / ml

CC1COc2c(N3CCN(C)CC3)c(F)cc3c(=O)c(C(=O)O)cn1c23 (stereo not drawn) [OFLX, Ofloxacin]
MIC (P. aeruginosa; clinical isolates P. aeruginosa, No. of strains 27, read-out: MIC): 3.13 mg/L (≈ 8.66 µM) | MIC (S. marcescens): 0.2 mg/L (≈ 0.553 µM) | MIC (N. gonorrhoeae): 0.05 mg/L (≈ 0.138 µM) | MIC (B. catarrhalis; clinical isolates B. catarrhalis, No. of strains 21, read-out: MIC): 0.2 mg/L (≈ 0.553 µM) | MIC (P. vulgaris): 0.1 mg/L (≈ 0.277 µM) | MIC (Acinetobacter sp.; clinical isolates Acinetobacter sp., No. of strains 13, read-out: MIC): 3.13 mg/L (≈ 8.66 µM) | MIC (P. maltophilia): 6.25 mg/L (≈ 17.3 µM) | MIC (Alcaligenes sp.): 6.25 mg/L (≈ 17.3 µM) | MIC (Campylobacter jejuni): 0.39 mg/L (≈ 1.08 µM) | MIC (M. morganii): 0.1 mg/L (≈ 0.277 µM) | MIC (P. mirabilis): 0.2 mg/L (≈ 0.553 µM) | MIC (C. freundii): 0.39 mg/L (≈ 1.08 µM) | MIC (E. faecalis): 3.13 mg/L (≈ 8.66 µM) | MIC (Bacteroides sp.): 3.13 mg/L (≈ 8.66 µM) | MIC (S. aureus): 0.39 mg/L (≈ 1.08 µM) | MIC (P. pneumoniae): 0.78 mg/L (≈ 2.16 µM) | MIC (E. coli): 0.1 mg/L (≈ 0.277 µM) | MIC (MR-S. aureus): 1.56 mg/L (≈ 4.32 µM) | MIC (H. influenzae): 0.1 mg/L (≈ 0.277 µM) | MIC (S. epidermidis): 0.39 mg/L (≈ 1.08 µM) | ED50 (P. aeruginosa IID 1210; [8]): 12.1 mg/kg | ED50 (E. coli ML 4707; [9]): 2.1 mg/kg | ED50 (S. aureus Smith; S. aureus Smith systemic infection (i.p.), male ICR mice, oral administration an hour after infection, read-out: ED50): 17 mg/kg | ED50 (S. pneumoniae S-4288; [10]): > 100 mg/kg | MIC (N. meningitidis): 0.025 mg/L (≈ 0.0692 µM) | MIC (S. pneumoniae; clinical isolates S. pneumoniae, No. of strains 6, read-out: MIC): 3.13 mg/L (≈ 8.66 µM) | MIC (S. pyogenes; clinical isolates S. pyogenes, No. of strains 6, read-out: MIC): 1.56 mg/L (≈ 4.32 µM) | MIC (E. cloacae): 0.1 mg/L (≈ 0.277 µM)

CCn1cc(C(=O)O)c(=O)c2cc(F)c(N3CCNCC3)cc21 [NFLX, Norfloxacin]
MIC (P. aeruginosa): 1.56 mg/L (≈ 4.89 µM) | MIC (S. marcescens): 0.1 mg/L (≈ 0.313 µM) | MIC (N. gonorrhoeae): 0.1 mg/L (≈ 0.313 µM) | MIC (B. catarrhalis): 1.56 mg/L (≈ 4.89 µM) | MIC (P. vulgaris): 0.05 mg/L (≈ 0.157 µM) | MIC (Acinetobacter sp.; Acinetobacter): 12.5 mg/L (≈ 39.1 µM) | MIC (P. maltophilia): 25 mg/L (≈ 78.3 µM) | MIC (Alcaligenes sp.): 100 mg/L (≈ 313 µM) | MIC (Campylobacter jejuni): 0.78 mg/L (≈ 2.44 µM) | MIC (M. morganii): 0.05 mg/L (≈ 0.157 µM) | MIC (P. mirabilis): 0.1 mg/L (≈ 0.313 µM) | MIC (C. freundii): 0.39 mg/L (≈ 1.22 µM) | MIC (E. faecalis): 6.25 mg/L (≈ 19.6 µM) | MIC (Bacteroides sp.): 50 mg/L (≈ 157 µM) | MIC (S. aureus): 1.56 mg/L (≈ 4.89 µM) | MIC (P. pneumoniae): 0.78 mg/L (≈ 2.44 µM) | MIC (E. coli): 0.1 mg/L (≈ 0.313 µM) | MIC (MR-S. aureus): 25 mg/L (≈ 78.3 µM) | MIC (H. influenzae): 0.2 mg/L (≈ 0.626 µM) | MIC (S. epidermidis): 0.78 mg/L (≈ 2.44 µM) | ED50 (P. aeruginosa IID 1210; [8]): 18.9 mg/kg | ED50 (E. coli ML 4707; [9]): 8.9 mg/kg | ED50 (S. pneumoniae S-4288; [10]): > 100 mg/kg | MIC (N. meningitidis): 0.05 mg/L (≈ 0.157 µM) | MIC (S. pneumoniae): 12.5 mg/L (≈ 39.1 µM) | MIC (S. pyogenes): 1.56 mg/L (≈ 4.89 µM) | MIC (E. cloacae): 0.1 mg/L (≈ 0.313 µM)

Cc1ncc([N+](=O)[O-])n1CCO [MND, metronidazole]
Viable cells count (log) / ml (Bacteroides fragilis 2; 50 mg/kg, p.o., 6 hr): 5.2 ± 0.10 (log) / ml | Viable cells count (log) / ml (Bacteroides fragilis 2; 50 mg/kg, p.o., 24 hr): 5.7 ± 0.60 (log) / ml

CCC[C@@H]1C[C@@H](C(=O)N[C@@H]([C@H]2O[C@H](SC)[C@H](O)[C@@H](O)[C@H]2O)[C@H](C)Cl)N(C)C1 [CLDM, clindamycin]
Viable cells count (log) / ml (Bacteroides fragilis 2; 25 mg/kg, s.c., 6 hr): 4.6 ± 0.058 (log) / ml | Viable cells count (log) / ml (Bacteroides fragilis 2; 25 mg/kg, s.c., 24 hr): 6.4 ± 0.38 (log) / ml

O=C(O)c1cn(C2CC2)c2cc(N3CCNCC3)c(F)cc2c1=O [CFLX, Ciprofloxacin]
MIC (Pst. microns UPI 5464-1): 0.2 mg/L | MIC (Shigella sonnei IID 969): ≤ 0.006 mg/L | MIC (K. pneumoniae 1-220S): 0.05 mg/L (≈ 0.151 µM) | MIC ([4]; Escherichia coli NIHJ JC-2, 10^6 cells/ml, Gram -, read-out: MIC): ≤ 0.006 mg/L | ED50 (P. aeruginosa IID 1210; IID1210, po): 4.5 mg/kg | ED50 (E. coli ML 4707; ML4707, po): 1.5 mg/kg | ED50 (S. aureus Smith; po): 31 mg/kg | ED50 (S. pneumoniae S-4288; S4288, po): > 100 mg/kg | MIC [6]: ≤ 0.006 mg/L

Nc1ccc2cc3ccccc3cc2c1 [Example 2AA, 2-Aminoanthracene]
His^+ revertants per plate [7]: 277
